Results as given in patent US8084596B2, “Regulated apoptosis” (The Board of Trustees of the Leland Stanford Junior …, priority 1993, dated 2011).

Molecular target: T1, myristoylated Fas-FKBP12 fusion protein (MFF3E) (Homo sapiens, UniProt P25445)
T1 construct: expressed in transfected cells; host or cells: Jurkat T cells stably transformed with large T-antigen, transient transfection
Assay type: cell-based

T1 sequence (P25445 with tags, fused parts or gaps): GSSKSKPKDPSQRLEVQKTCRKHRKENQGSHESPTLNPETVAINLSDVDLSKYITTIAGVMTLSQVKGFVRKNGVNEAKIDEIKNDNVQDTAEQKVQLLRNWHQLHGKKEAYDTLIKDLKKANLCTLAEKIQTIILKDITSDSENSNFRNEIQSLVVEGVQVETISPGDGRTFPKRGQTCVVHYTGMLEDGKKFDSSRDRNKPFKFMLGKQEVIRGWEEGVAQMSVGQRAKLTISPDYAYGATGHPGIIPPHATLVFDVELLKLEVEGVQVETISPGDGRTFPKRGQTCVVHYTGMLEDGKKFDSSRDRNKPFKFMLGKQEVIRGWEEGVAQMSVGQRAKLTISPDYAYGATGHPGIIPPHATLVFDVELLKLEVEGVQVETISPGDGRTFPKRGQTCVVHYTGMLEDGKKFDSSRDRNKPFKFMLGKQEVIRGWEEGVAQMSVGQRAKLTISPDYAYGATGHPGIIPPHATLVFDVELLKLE

Substance: FK1012-A (p-xylylenediamine bridge) [FK1012A]
- LD50 for mediated death of cells: 15 nM
